Measured values published in patent US20070128217A1 (priority 2003, published 2007).

Assays:
[1] = system: antibodies in sera from SARS patients (sera 1a, 1b, 2, 6, 37, 62, London, SARS-yellow, SARS-green); format: binding, human; set-up: Binding of serum 6 to linear peptides of protein X1 of SARS-CoV Urbani / Binding of serum 37 to linear peptides of protein X1 of SARS-CoV Urbani / Binding of serum 6 to looped/cyclic peptide (PEPSCAN-ELISA) / Binding of serum 37 to looped/cyclic peptide (PEPSCAN-ELISA) / Binding of serum 37 to looped/cyclic peptides of protein X1 of SARS-CoV Urbani / Binding of serum 6 to linear peptides of protein X2 / Binding of serum 37 to linear peptides of protein X2 / Binding of serum 37 to looped/cyclic peptides of protein X2 of SARS-CoV Urbani / Binding of serum 6 to linear peptides of protein M of SARS-CoV Urbani / Binding of serum 37 to linear peptides of protein M of SARS-CoV Urbani / Binding of serum 6 to looped/cyclic peptides of protein M of SARS-CoV Urbani / Binding of serum 37 to looped/cyclic peptides of protein M of SARS-CoV Urbani / Binding of serum 6 to linear peptides of protein X3 of SARS-CoV Urbani / Binding of serum 37 to linear peptides of protein X3 of SARS-CoV Urbani / Binding of serum 37 to looped/cyclic peptides of protein X3 of SARS-CoV Urbani / Binding of serum 6 to linear peptides of protein X4 of SARS-CoV Urbani / Binding of serum 37 to linear peptides of protein X4 of SARS-CoV Urbani / Binding of serum 37 to looped/cyclic peptides of protein X4 of SARS-CoV Urbani / Binding of serum 6 to linear peptides of protein X5 of SARS-CoV Urbani / Binding of serum 37 to linear peptides of protein X5 of SARS-CoV Urbani / Binding of serum 37 to looped/cyclic peptides of protein X5 of SARS-CoV Urbani / Binding of serum 6 to linear peptides of protein N of SARS-CoV Urbani / Binding of serum 37 to linear peptides of protein N of SARS-CoV Urbani / Binding of serum 6 to linear peptide (PEPSCAN-ELISA) / Binding of serum 1a to looped/cyclic peptides of protein N of SARS-CoV Urbani / Binding of serum 1b to looped/cyclic peptides of protein N of SARS-CoV Urbani / Binding of serum 2 to looped/cyclic peptides of protein N of SARS-CoV Urbani / Binding of serum 6 to looped/cyclic peptides of protein N of SARS-CoV Urbani / Binding of serum 37 to looped/cyclic peptides of protein N of SARS-CoV Urbani / Binding of serum 62 to looped/cyclic peptides of protein N of SARS-CoV Urbani / Binding of serum London to looped/cyclic peptides of protein N of SARS-CoV Urbani / Binding of serum SARS-green to looped/cyclic peptides of protein N of SARS-CoV Urbani: unit not given here
[2] = system: rabbit serum obtained by immunizing a rabbit with the SARS-CoV strain Frankfurt 1; format: binding; set-up: Binding of a rabbit serum to linear peptides / Binding of a rabbit serum to looped peptides / Rabbit serum linear peptides / Rabbit serum looped peptides / Binding of a rabbit serum to linear peptides of protein N of SARS-CoV Urbani (Rabbit serum linear peptides) / Binding of a rabbit serum to looped/cyclic peptides of protein N of SARS-CoV Urbani (Rabbit serum looped peptides): unit not given here
[3] = system: control sera (pooled serum of ten healthy LUMC hospital workers; commercial negative donor pooled serum from the Dutch bloodbank); format: binding, human; set-up: Binding of Control serum LUMC to linear peptides / Binding of Control serum Blood-bank to linear peptides / Binding of Control serum LUMC to looped peptides / Binding of Control Serum Blood-Bank to Looped peptides / Binding of Control serum LUMC to linear peptides of the protein M of SARS-CoV Urbani / Binding of Control serum Blood-bank to linear peptides of the protein M of SARS-CoV Urbani / Binding of Control serum LUMC to looped peptides of the protein M of SARS-CoV Urbani / Binding of Control Serum Blood-Bank to Looped peptides of the protein M of SARS-CoV Urbani: unit not given here

Sequence: YSHLLLVAAGMEAQF
- Binding of serum 1a to linear peptides of protein X1 of SARS-CoV Urbani [1]: 0.7
- Binding of serum 1a to looped/cyclic peptide (PEPSCAN-ELISA) [1]: 0.4
- Binding of serum 1b to linear peptides of protein X1 of SARS-CoV Urbani [1]: 0.6
- Binding of serum 1b to looped/cyclic peptide (PEPSCAN-ELISA) [1]: 0.4
- Binding of serum 2 to linear peptides of protein X1 of SARS-CoV Urbani [1]: 0.5
- Binding of serum 2 to looped/cyclic peptide (PEPSCAN-ELISA) [1]: 0.5
- Binding of serum 6 to linear peptides of protein X1 of SARS-CoV Urbani [1]: 0.5
- Binding of serum 6 to looped/cyclic peptide (PEPSCAN-ELISA) [1]: 0.3
- Binding of serum 37 to linear peptides of protein X1 of SARS-CoV Urbani [1]: 0.6
- Binding of serum 37 to looped/cyclic peptide (PEPSCAN-ELISA) [1]: 0.7
- Binding of serum 62 to linear peptides of protein X1 of SARS-CoV Urbani [1]: 0.7
- Binding of serum 62 to looped/cyclic peptide (PEPSCAN-ELISA) [1]: 0.5
- Binding of serum London to linear peptides of protein X1 of SARS-CoV Urbani [1]: 0.3
- Binding of serum London to looped/cyclic peptide (PEPSCAN-ELISA) [1]: 0.3
- Binding of serum SARS-green to linear peptides of protein X1 of SARS-CoV Urbani [1]: 0.3
- Binding of serum SARS-green to looped/cyclic peptide (PEPSCAN-ELISA) [1]: 0.5
- Binding of serum SARS-yellow to linear peptides of protein X1 of SARS-CoV Urbani [1]: 0.4
- Binding of serum SARS-yellow to looped/cyclic peptide (PEPSCAN-ELISA) [1]: 0.3
- Binding of a rabbit serum to linear peptides [2]: 0.1
- Binding of a rabbit serum to looped peptides [2]: 0.4
- Binding of Control Serum Blood-Bank to Looped peptides [3]: 0.4
- Binding of Control serum Blood-bank to linear peptides [3]: 0.6
- Binding of Control serum LUMC to linear peptides [3]: 0.5
- Binding of Control serum LUMC to looped peptides [3]: 0.6

Sequence: YSNRNRFLYIIKLVF
- Binding of serum 1a to linear peptides of protein M of SARS-CoV Urbani [1]: 0.7
- Binding of serum 1b to linear peptides of protein M of SARS-CoV Urbani [1]: 0.5
- Binding of serum 2 to linear peptides of protein M of SARS-CoV Urbani [1]: 0.6
- Binding of serum 6 to linear peptides of protein M of SARS-CoV Urbani [1]: 0.3
- Binding of serum 37 to linear peptides of protein M of SARS-CoV Urbani [1]: 0.7
- Binding of serum 62 to linear peptides of protein M of SARS-CoV Urbani [1]: 0.7
- Binding of serum London to linear peptides of protein M of SARS-CoV Urbani [1]: 0.3
- Binding of serum SARS-green to linear peptides of protein M of SARS-CoV Urbani [1]: 0.3
- Binding of serum SARS-yellow to linear peptides of protein M of SARS-CoV Urbani [1]: 0.1
- Recognition of the peptide by sera of SARS-CoV infected individuals, and form (linear, looped/cyclic) in which it is recognized [1]: recognized in looped/cyclic form
- Rabbit serum linear peptides [2]: 0.4
- Rabbit serum looped peptides [2]: 0.5
- Binding of Control Serum Blood-Bank to Looped peptides of the protein M of SARS-CoV Urbani [3]: 0.6
- Binding of Control serum Blood-bank to linear peptides of the protein M of SARS-CoV Urbani [3]: 0.7
- Binding of Control serum LUMC to linear peptides of the protein M of SARS-CoV Urbani [3]: 0.4
- Binding of Control serum LUMC to looped peptides of the protein M of SARS-CoV Urbani [3]: 0.9

Sequence: YSTAWLCALGKVLPF
- Binding of serum 1a to linear peptides of protein X5 of SARS-CoV Urbani [1]: 0.7
- Binding of serum 1a to looped/cyclic peptides of protein X5 of SARS-CoV Urbani [1]: 0.5
- Binding of serum 1b to linear peptides of protein X5 of SARS-CoV Urbani [1]: 0.6
- Binding of serum 1b to looped/cyclic peptides of protein X5 of SARS-CoV Urbani [1]: 0.3
- Binding of serum 2 to linear peptides of protein X5 of SARS-CoV Urbani [1]: 0.7
- Binding of serum 2 to looped/cyclic peptides of protein X5 of SARS-CoV Urbani [1]: 0.5
- Binding of serum 6 to linear peptides of protein X5 of SARS-CoV Urbani [1]: 0.6
- Binding of serum 6 to looped/cyclic peptides of protein X5 of SARS-CoV Urbani [1]: 0.6
- Binding of serum 37 to linear peptides of protein X5 of SARS-CoV Urbani [1]: 0.6
- Binding of serum 37 to looped/cyclic peptides of protein X5 of SARS-CoV Urbani [1]: 0.5
- Binding of serum 62 to linear peptides of protein X5 of SARS-CoV Urbani [1]: 0.8
- Binding of serum 62 to looped/cyclic peptides of protein X5 of SARS-CoV Urbani [1]: 0.8
- Binding of serum London to linear peptides of protein X5 of SARS-CoV Urbani [1]: 0.8
- Binding of serum London to looped/cyclic peptides of protein X5 of SARS-CoV Urbani [1]: 0.4
- Binding of serum SARS-green to linear peptides of protein X5 of SARS-CoV Urbani [1]: 0.5
- Binding of serum SARS-green to looped/cyclic peptides of protein X5 of SARS-CoV Urbani [1]: 0.2
- Binding of serum SARS-yellow to linear peptides of protein X5 of SARS-CoV Urbani [1]: 0.4
- Binding of serum SARS-yellow to looped/cyclic peptides of protein X5 of SARS-CoV Urbani [1]: 0.9
- Rabbit serum linear peptides [2]: 0.7
- Rabbit serum looped peptides [2]: 1.0
- Binding of Control Serum Blood-Bank to Looped peptides [3]: 0.4
- Binding of Control serum Blood-bank to linear peptides [3]: 0.8
- Binding of Control serum LUMC to linear peptides [3]: 0.5
- Binding of Control serum LUMC to looped peptides [3]: 0.5

Sequence: YYQLESTQITTDTGI
- Binding of serum 1a to linear peptides of protein X1 of SARS-CoV Urbani [1]: 0.7
- Binding of serum 1a to looped/cyclic peptides of protein X1 of SARS-CoV Urbani [1]: 0.4
- Binding of serum 1b to linear peptides of protein X1 of SARS-CoV Urbani [1]: 0.7
- Binding of serum 1b to looped/cyclic peptides of protein X1 of SARS-CoV Urbani [1]: 0.3
- Binding of serum 2 to linear peptides of protein X1 of SARS-CoV Urbani [1]: 0.4
- Binding of serum 2 to looped/cyclic peptides of protein X1 of SARS-CoV Urbani [1]: 0.2
- Binding of serum 6 to linear peptides of protein X1 of SARS-CoV Urbani [1]: 0.5
- Binding of serum 6 to looped/cyclic peptides of protein X1 of SARS-CoV Urbani [1]: 0.2
- Binding of serum 37 to linear peptides of protein X1 of SARS-CoV Urbani [1]: 0.7
- Binding of serum 37 to looped/cyclic peptides of protein X1 of SARS-CoV Urbani [1]: 0.5
- Binding of serum 62 to linear peptides of protein X1 of SARS-CoV Urbani [1]: 0.5
- Binding of serum 62 to looped/cyclic peptides of protein X1 of SARS-CoV Urbani [1]: 0.4
- Binding of serum London to linear peptides of protein X1 of SARS-CoV Urbani [1]: 0.2
- Binding of serum London to looped/cyclic peptides of protein X1 of SARS-CoV Urbani [1]: 0.2
- Binding of serum SARS-green to linear peptides of protein X1 of SARS-CoV Urbani [1]: 0.2
- Binding of serum SARS-green to looped/cyclic peptides of protein X1 of SARS-CoV Urbani [1]: 0.3
- Binding of serum SARS-yellow to linear peptides of protein X1 of SARS-CoV Urbani [1]: 0.3
- Binding of serum SARS-yellow to looped/cyclic peptides of protein X1 of SARS-CoV Urbani [1]: 0.3
- Binding of a rabbit serum to linear peptides [2]: 0.1
- Binding of a rabbit serum to looped peptides [2]: 0.6
- Binding of Control Serum Blood-Bank to Looped peptides [3]: 0.4
- Binding of Control serum Blood-bank to linear peptides [3]: 0.4
- Binding of Control serum LUMC to linear peptides [3]: 0.5
- Binding of Control serum LUMC to looped peptides [3]: 0.4
